In one assay the test system is ER-positive T47D cells. Kind of assay: T47D cell growth inhibition (CellTiter-Glo, 6 days), ER degrader plus CDK4/6 inhibitor. The assay is classed as cell-based, human.
Assay [1] relates to MCF7 human xenograft tumors. Kind of assay: Anti-tumor efficacy in MCF7 human xenograft tumors. The class given is in vivo. Particulars: BALB/c nude mouse, 17β-estradiol tablet, treated for 21 days, versus each agent alone. On the procedure: MCF-7 cells, a breast cancer cell cline, (10×10^6) in 0.1 mL of PBS mixed with 0.1 mL matrigel (total 0.2 mL) were inoculated subcutaneously at the right flank of each mouse, which has been implanted with 17β-estradiol (0.18 mg) tablet subcutaneously in the left flank three days before. When the average tumor volume reaches approximately 175 mm^3, the animals were randomized and treatment was started.
MCF-7 tumor cells (10×10^6) in 0.1 mL of PBS mixed with 0.1 mL matrigel (total 0.2 mL) were inoculated subcutaneously at the right flank of each BALB/c nude mouse, which has been implanted with 17β-estradiol (0.18 mg) tablet subcutaneously in the left flank three days before. When the average tumor volume reached approximately 175 mm^3, the animals were randomized and treated for 21 days with an ER degrader 160a alone, or with a CDK4/6 inhibitor, Palbociclib, alone, or with the combination of ER degrader 160a and Palbociclib.
MCF-7 tumor cells (10×10^6) in 0.1 mL of PBS mixed with 0.1 mL matrigel (total 0.2 mL) were inoculated subcutaneously at the right flank of each BALB/c nude mouse, which has been implanted with 17β-estradiol (0.18 mg) tablet subcutaneously in the left flank three days before. […]

Assay [2] relates to Tamoxifen-resistant MCF7 human xenograft tumors. Kind of assay: Anti-tumor efficacy in tamoxifen-resistant MCF7 human xenograft tumors. The class given is in vivo. Particulars: tamoxifen-resistant MCF7 xenograft (passage 9), BALB/c nude mouse, treated for 28; versus each agent alone. On the procedure:
Tamoxifen-resistant MCF-7 cells were subcutaneously implanted to establish cell line-derived xenograft tumors. […] This tumor was then defined as passage 0. The tumor fragments were constantly implanted into new animals (per passage) with 30 mg/kg Tamoxifen treatment. For the efficacy study, the passage 9 tamoxifen-resistant tumor fragments (˜30 mm3) were inoculated subcutaneously at the right flank of each BALB/c nude mouse, which has been implanted with 17β-estradiol (0.36 mg) tablet subcutaneously in the left flank three days before. When the average tumor volume reached approximately 175 mm3, the animals were randomized and treated for 28. Tamoxifen-resistant MCF7 human xenograft tumors were treated with an ER degrader 160b alone, or with a CDK4/6 inhibitor, Palbociclib, alone, or with the combination of ER degrader 160b and Palbociclib.
In general terms: A xenograft is tissue or cells of one species grown in another, often human tumour cells in immunodeficient mice.

Results on 2 compounds are retold here after patent publication US11642342B2, “Combinations of estrogen receptor degraders and cyclin-dependent kinase inhibitors for treating cancer” (Accutar Biotechnology, priority 2019, dated 2023).

Take `CCC(=C(c1ccc(O)cc1)c1ccc(N2CCC(CN3CCN(c4ccc5c(c4)CN([C@H]4CCC(=O)NC4=O)C5=O)CC3)CC2)cc1)c1ccccc1` [160a, (E)/(Z)-(S)-3-(5-(4-((1-(4-(1-(4-hydroxyphenyl)-2-phenylbut-1-en-1-yl)phenyl)piperidin-4-yl)methyl)piperazin-1-yl)-1-oxoisoindolin-2-yl)piperidine-2,6-dione]: the “cell growth inhibition, combination with Abemaciclib” value in the assay with ER-positive T47D cells (ER degrader at increasing concentrations combined with Abemaciclib 10, 30, 100 nM, versus single agent) is listed as “synergizes with CDK4/6 inhibitor Abemaciclib in vitro to inhibit cell growth with greater efficacy than the ER degrader alone”. In addition, the “cell growth inhibition, combination with Palbociclib” value with ER-positive T47D cells (ER degrader at increasing concentrations combined with Palbociclib 10, 30, 100 nM, versus each agent alone) is “synergizes with CDK4/6 inhibitor Palbociclib in vitro to inhibit cell growth with greater efficacy than the ER degrader or CDK4/6 inhibitor alone”. Further, in assay [1], the “tumor growth inhibition, combination with Palbociclib” value is “synergizes with CDK4/6 inhibitor Palbociclib in vivo to inhibit tumor growth with greater efficacy than the ER degrader or CDK4/6 inhibitor alone”.
As to `CC/C(=C(\c1ccc(O)cc1)c1ccc(N2CCC(CN3CCN(c4ccc5c(c4)CN([C@H]4CCC(=O)NC4=O)C5=O)CC3)CC2)cc1)c1ccccc1` [160b], the “tumor growth inhibition, combination with Palbociclib” value in assay [2] is on record as “synergizes with CDK4/6 inhibitor Palbociclib in vivo to inhibit tumor growth with greater efficacy than the ER degrader or CDK4/6 inhibitor alone”.
